Test results reported in publication PMC7187754, “Identification of the Molecular Determinants Involved in Antimicrobial Activity of Pseudodesmin A, a Cyclic Lipopeptide From the Viscosin Group” (Frontiers in Microbiology, 2020).
Where two headings read alike, the source gives them in different places.

How the values were obtained:
[1] = test system: Clostridium perfringens NCTC 8798; assay type: cell-based
[2] = test system: Streptococcus pyogenes LMG 15868; assay: Broth microdilution antimicrobial assay (MIC1/2); assay type: cell-based
[3] = test system: Enterococcus faecium LMG 9431; assay: Broth microdilution antimicrobial assay (MIC1/2); assay type: cell-based
[4] = test system: Streptococcus pneumoniae LMG 21598; assay: Broth microdilution antimicrobial assay (MIC1/2); assay type: cell-based
[5] = test system: Staphylococcus aureus LMG 10147; assay: Broth microdilution antimicrobial assay (MIC1/2); assay type: cell-based
[6] = test system: Enterococcus faecalis LMG 8222; assay: Broth microdilution antimicrobial assay (MIC1/2); assay type: cell-based
[7] = fluorescence permeability assays, model membranes, natural compounds; ref Geudens et al., 2017; cited from earlier work
Excerpt: We have previously reported the three-dimensional structure of the 2 neutral subgroup representatives, viscosinamide A (D^0) ([Geudens et al., 2014]) and pseudodesmin A (L^0) ([Sinnaeve et al., 2009a], [b]), while that of anionic WLIP (D^–) was already available from literature ([Han et al., 1992]). To avoid ambiguity, the three-dimensional structure is referred to hereafter as the ‘fold’ of a Ps-CLiP whereas the chemical (covalent) structure will simply be referred to as ‘structure’ as indicated in Figure 1C. In spite of the D/L switch in stereochemistry for Leu5, all have identical backbone ...

[8] = RP-HPLC retention time as measure of overall hydrophobicity; assay type: physicochemical; settings: chromatographic, RP-HPLC (LC-MS system: Kinetex C18, 150 mm × 4.60 mm, 5 μm, 1.5 ml/min; gradient not stated at this place)
Method: Chemicals and general procedures are listed in the Supplementary Materials section. All procedures for the synthesis and purification of specific building blocks as well as solid-phase peptide synthesis, and cyclization release of the PsdA-analogs were carried out as described previously for the total synthesis of pseudodesmin A (1) and its enantiomer (2) ([De Vleeschouwer et al., 2014]). Practical details and relevant variations of the procedures for specific cases are collected in the Supplementary Materials section of this paper, together with full characterization of all fatty acid building blocks and analogs. The crude cyclic lipopeptides were purified using either semi-preparative or preparative RP-HPLC. Semi-preparative purification was performed on an Agilent 1100 series instrument using a Kromasil column (C18, 250 mm × 7.8 mm, 5 μm particle size). The analyses were executed with a flow rate of 3 ml/min and with the following solvent systems: H2O containing 0.1% HCOOH (A) and CH3CN (B). […] High-resolution mass spectra were recorded on an Agilent 6220A time-of-flight mass spectrometer, equipped with an Agilent ESI/APCI multimode source. […]

[9] = minimal concentration inhibiting growth by at least 50% vs untreated control, broth microdilution (CLSI), Reinforced Clostridial Medium, 0.016-32 μg/ml twofold dilutions, ~5 × 10^5 CFU/ml, 37°C, 24 h, OD 590 nm
[10] = minimal concentration inhibiting growth by at least 50% vs untreated control, broth microdilution (CLSI), 0.016-32 μg/ml twofold dilutions, ~5 × 10^5 CFU/ml, 37°C, 24 h, OD 590 nm

Compound | MIC1/2 C. perfringens NCTC 8798 [1] [µg/mL] | MIC1/2 S. pyogenes LMG 15868 [2] [µg/mL] | MIC1/2 E. faecium LMG 9431 [3] [µg/mL] | MIC1/2 S. pneumoniae LMG 21598 [4] [µg/mL] | MIC1/2 S. aureus LMG 10147 [5] [µg/mL] | MIC1/2 E. faecalis LMG 8222 [6] [µg/mL] | MIC1/2 C. perfringens NCTC 8798 [1, 9] [µg/mL] | MIC1/2 S. pyogenes LMG 15868 [2, 10] [µg/mL] | MIC1/2 E. faecium LMG 9431 [3, 10] [µg/mL] | MIC1/2 S. pneumoniae LMG 21598 [4, 10] [µg/mL] | MIC1/2 E. faecalis LMG 8222 [6, 10] [µg/mL] | C1/2 of membrane permeabilization [7] [µM] | HPLC retention time (overall hydrophobicity) [8] [min] | MIC1/2 S. aureus LMG 10147 [5, 10] [µg/mL]
CN[C@H](CC(C)C)C(=O)N[C@H]1C(=O)N[C@@H](CC(N)=O)C(=O)N[C@H]2C(=O)N[C@H]3C(=O)N[C@H](C(=O)N[C@H](C(=O)O)c4cc(O)cc(O)c4-c4cc3ccc4O)[C@H](O)c3ccc(c(Cl)c3)Oc3cc2cc(c3O[C@@H]2O[C@H](CO)[C@@H](O)[C@H](O)[C@H]2O[C@H]2C[C@](C)(N)[C@H](O)[C@H](C)O2)Oc2ccc(cc2Cl)[C@H]1O [Vancomycin] | 0.25 | 0.5 | 1 | 0.25 | 2 | 4 |  |  |  |  |  |  |  | 
Daptomycin |  |  |  |  |  |  | 8 | 2 | 16 | 4 | >32 |  |  | 
Pseudodesmin A [compound 1] |  |  |  |  |  |  | 2 | 1 | 4 | 2 | 4 | ~3.7 | 7.4 | 4
viscosin |  |  |  |  |  |  |  |  |  |  |  | ~4.9 |  | 
